Here are results for eleven compounds from ChEMBL document CHEMBL1201862, “PubChem BioAssay data set” (2004).

Each structure is given as a SMILES string.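 Test compounds were applied to cells in 96-well plates for 48 hours at 5 doses. GI50 is the concentration that inhibits growth by half.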 The source made the active and inactive calls. Rule as the data show it: active = GI50 up to about 1.1 µM and inactive = higher. Positions of bridges follow the written chain, without caps; N, C: chain ends. Where a SMILES comes first, the peptide text is derived from it. Non-standard residues stand in square brackets, D forms with d. Residues, ends and D or L forms follow the SMILES beside them. [ ]: non-standard residue; d: D form. ξ: configuration not given here. *: point of attachment. ξThz(5,5-Me2) = CC1(C)SCNC1C(=O)O; Cbz = O=C(OCc1ccccc1)*; Aib = CC(C)(N)C(=O)O; OBn = c1ccc(CO*)cc1; βAla = NCCC(=O)O

Test systems include HOP-92; EKVX; NCI-H460; RXF 393; HCT-15; U-251; MDA-MB-435; OVCAR-5; 786-0; Malme-3M; A549; SK-MEL-5; Hs-578T; KM12; IGROV-1; HL-60; TK-10; HOP-62; OVCAR-4; SK-MEL-2.
What all share (test): NCI anticancer screen, dose series, 48 h

With `OC1CSc2nc3ccccc3n2C1` (centres undefined), the GI50 is > 100 µM (inactive) in the experiment with HOP-92; > 100 µM (inactive) with EKVX; > 100 µM (inactive) with NCI-H460; > 100 µM (inactive) in the experiment on RXF 393; above 100 µM in the experiment on HCT-15; > 100 µM (inactive) in the experiment on U-251. In addition, the GI50 in the experiment with MDA-MB-435, in the experiment on OVCAR-5, with 786-0, in the experiment with Malme-3M, in the experiment with A549 and in the experiment on SK-MEL-5 was > 100 µM (inactive) throughout. Besides, the GI50 in the experiment with Hs-578T is 23.8 µM (inactive); in the experiment with KM12, > 100 µM (inactive); in the experiment with IGROV-1, > 100 µM (inactive); in the experiment on HL-60, > 100 µM (inactive); in the experiment with TK-10, > 100 µM (inactive).

`COc1ccc(OC)c(/C=C/c2ccnc3ccccc23)c1`: the GI50 in the experiment on HOP-92 is 1.07 µM (active); with EKVX it was 0.463 µM (active); in the experiment on NCI-H460 it was 0.371 µM (active); with RXF 393 it was 0.377 µM (active); in the experiment on HOP-62 it was 0.45 µM (active); in the experiment with HCT-15, 0.372 µM. The GI50 was 0.374 µM (active) in the experiment with U-251; 0.167 µM (active) in the experiment on MDA-MB-435; 2.43 µM (inactive) in the experiment on OVCAR-5; 0.482 µM (active) in the experiment on 786-0; 2.07 µM (inactive) with Malme-3M; 0.735 µM (active) with A549. The GI50 with SK-MEL-5 was 0.272 µM (active); in the experiment on Hs-578T, 0.34 µM (active); in the experiment on KM12, 0.312 µM (active); with IGROV-1, 0.822 µM (active); in the experiment on HL-60, 0.2 µM (active); with TK-10 it was 1.61 µM (inactive). Further, in the experiment on OVCAR-4, the GI50 was 0.863 µM (active).

On to `O=C1C2CCCC2N1Cc1ccccc1` (centres undefined), for which the GI50 was > 100 µM (inactive) with HOP-92; > 100 µM (inactive) with EKVX; > 100 µM (inactive) in the experiment on NCI-H460; > 100 µM (inactive) in the experiment with RXF 393; > 100 µM (inactive) with HOP-62; above 100 µM in the experiment with HCT-15. The GI50 in the experiment with MDA-MB-435, in the experiment with OVCAR-5, with 786-0, in the experiment with SK-MEL-5, in the experiment on Hs-578T and in the experiment with KM12 was > 100 µM (inactive) throughout. In addition, the GI50 was > 100 µM (inactive) in the experiment with IGROV-1, > 100 µM (inactive) with HL-60, > 100 µM (inactive) in the experiment on TK-10 and 23.3 µM (inactive) with OVCAR-4.

On to `C=C(Nc1nc2ccc(C)cc2s1)C(=O)C(CC)C(=O)C(CC)CC1C(=O)NC(=O)NC1=O` (centres undefined), for which the GI50 was > 100 µM (inactive) in the experiment on SK-MEL-2; > 100 µM (inactive) in the experiment on HOP-92; > 100 µM (inactive) with EKVX; > 100 µM (inactive) in the experiment on NCI-H460; > 100 µM (inactive) in the experiment on RXF 393; 32 µM (inactive) in the experiment with HOP-62. Besides, the GI50 with HCT-15 was above 100 µM; in the experiment with U-251, > 100 µM (inactive); in the experiment on MDA-MB-435, > 100 µM (inactive); with OVCAR-5, > 100 µM (inactive); with 786-0, > 100 µM (inactive); in the experiment on A549, > 100 µM (inactive). The GI50 in the experiment with SK-MEL-5, in the experiment on Hs-578T, with KM12, with IGROV-1, in the experiment on HL-60 and in the experiment with TK-10 was > 100 µM (inactive) in each case. Further, the GI50 in the experiment with OVCAR-4 is > 100 µM (inactive).

Consider `COc1ccc(Oc2nc3c(N)cc(C(F)(F)F)cc3nc2-c2ccccc2)cc1`, for which the GI50 with SK-MEL-2 is 12.2 µM (inactive); in the experiment on HOP-92, 40.8 µM (inactive); in the experiment with EKVX, 12.8 µM (inactive); in the experiment on NCI-H460 it was 21.8 µM (inactive); with RXF 393 it was 11.6 µM (inactive); in the experiment with HOP-62 it was 22.8 µM (inactive). The GI50 with HCT-15 was 31.6 µM; in the experiment with U-251 it was 35.6 µM (inactive); with MDA-MB-435, 46.3 µM (inactive); with 786-0 it was 20.5 µM (inactive); in the experiment with SK-MEL-5, 29.9 µM (inactive); in the experiment with Hs-578T, 16.3 µM (inactive). Besides, the GI50 was 12.8 µM (inactive) in the experiment on KM12; 13.6 µM (inactive) in the experiment with IGROV-1; 59.6 µM (inactive) with HL-60; 38.5 µM (inactive) in the experiment on TK-10; > 100 µM (inactive) in the experiment on OVCAR-4.

As to `C1CCNCC1.S=C(S)N1CCCCC1`, the GI50 is 85.3 µM (inactive) in the experiment on SK-MEL-2; 95.1 µM (inactive) in the experiment with HOP-92; 111 µM (inactive) in the experiment with EKVX; 190 µM (inactive) with RXF 393; 129 µM (inactive) with HOP-62; 88.9 µM in the experiment on HCT-15. Also, the GI50 with U-251 was 1.46 µM (inactive); in the experiment with MDA-MB-435, 199 µM (inactive); in the experiment with OVCAR-5, 213 µM (inactive); in the experiment on 786-0, 97.3 µM (inactive); with Malme-3M, 19.1 µM (inactive); in the experiment on A549 it was 0.632 µM (active). The GI50 with SK-MEL-5 was 1.74 µM (inactive); with Hs-578T, 163 µM (inactive); with KM12, 2.26 µM (inactive); in the experiment on IGROV-1, 5.96 µM (inactive); in the experiment with HL-60 it was 0.307 µM (active); in the experiment with TK-10, 135 µM (inactive).

Take `Cc1nc2c(n1CCCl)C(=O)c1ccccc1C2=O`: the GI50 in the experiment with HOP-92 is 29.2 µM (inactive); in the experiment on EKVX, 53.8 µM (inactive); in the experiment on NCI-H460, 14.9 µM (inactive); in the experiment on RXF 393, 19.5 µM (inactive); in the experiment with HOP-62 it was 19.5 µM (inactive); with HCT-15 it was 7.87 µM. For the same compound, the GI50 in the experiment with U-251 was 12.6 µM (inactive); with MDA-MB-435 it was 15.3 µM (inactive); in the experiment with OVCAR-5 it was 19 µM (inactive); in the experiment on 786-0, 52.2 µM (inactive); with Malme-3M, 5.82 µM (inactive); with A549 it was 33.7 µM (inactive). The GI50 is > 10 µM (inactive) in the experiment with SK-MEL-5; 20.1 µM (inactive) with Hs-578T; 25.3 µM (inactive) in the experiment on KM12; 11.6 µM (inactive) with IGROV-1; 16.3 µM (inactive) with HL-60; 26.7 µM (inactive) with TK-10. In addition, in the experiment on OVCAR-4, the GI50 was 14.8 µM (inactive).

As to `Cc1nc(C)c(N2CCN(S(N)(=O)=O)CC2)c(O)n1`, the GI50 in the experiment on HOP-92 was > 100 µM (inactive); in the experiment on EKVX, > 100 µM (inactive); in the experiment with NCI-H460 it was > 100 µM (inactive); in the experiment with RXF 393, > 100 µM (inactive); in the experiment with HOP-62, > 100 µM (inactive); in the experiment on HCT-15 it was above 100 µM. Besides, the GI50 in the experiment with U-251, in the experiment on MDA-MB-435, in the experiment with 786-0, in the experiment on Malme-3M, with A549 and with SK-MEL-5 was > 100 µM (inactive) in each case. Moreover, the GI50 in the experiment on Hs-578T, in the experiment on KM12, in the experiment on IGROV-1, in the experiment with HL-60, in the experiment with TK-10 and in the experiment on OVCAR-4 was > 100 µM (inactive) each time.

Take `CN(C)CCOC(=O)c1ccc(N)cc1`: the GI50 is 12.6 µM (inactive) with HOP-92; 31.8 µM (inactive) in the experiment with NCI-H460; 97.1 µM (inactive) in the experiment on RXF 393; > 100 µM (inactive) in the experiment on HOP-62; above 100 µM in the experiment with HCT-15; 32.1 µM (inactive) in the experiment on U-251. Further, the GI50 in the experiment with MDA-MB-435 was 41.8 µM (inactive); in the experiment with OVCAR-5, 29.6 µM (inactive); in the experiment with 786-0, 44.8 µM (inactive); with Malme-3M, 49.8 µM (inactive); in the experiment with A549, 52.4 µM (inactive); in the experiment with SK-MEL-5, 25.6 µM (inactive). Also, the GI50 is 32.4 µM (inactive) with Hs-578T; 37.2 µM (inactive) with KM12; 22.4 µM (inactive) in the experiment on IGROV-1; 39 µM (inactive) in the experiment with HL-60; 44.4 µM (inactive) in the experiment on TK-10; 31.6 µM (inactive) in the experiment with OVCAR-4.

With `CC1(C)NC(=O)C(NC(=O)C(CC(=O)OCc2ccccc2)NC(=O)OCc2ccccc2)CCCCNC(=O)CCNC1=O` (centres undefined) (Cbz-D(OBn)K[Aib][βAla]; lactam 2-C; configuration not given here), the GI50 with HOP-92 is > 100 µM (inactive); in the experiment with EKVX it was > 100 µM (inactive); in the experiment on NCI-H460, > 100 µM (inactive); with RXF 393, > 100 µM (inactive); in the experiment with HOP-62, > 100 µM (inactive); in the experiment on HCT-15, above 100 µM. The GI50 in the experiment on U-251, with MDA-MB-435, in the experiment on OVCAR-5, in the experiment with 786-0, in the experiment with Malme-3M and with A549 was > 100 µM (inactive) throughout. In addition, the GI50 with SK-MEL-5, in the experiment with Hs-578T, in the experiment with KM12, in the experiment on IGROV-1, in the experiment on HL-60 and in the experiment on TK-10 was > 100 µM (inactive) throughout. Further, the GI50 in the experiment with OVCAR-4 is > 100 µM (inactive).

On to `CSCC[C@H](NC(=O)[C@H](CC(C)C)NC(=O)[C@H](Cc1c[nH]cn1)NC(=O)CNC(=O)C1N(C(=O)[C@@H](C)NC(=O)[C@H](Cc2c[nH]c3ccccc23)NC(=O)[C@H](CCC(N)=O)NC(=O)[C@@H](N)CC(N)=O)CSC1(C)C)C(N)=O` (some centres undefined) (H-NQW[dA][ξThz(5,5-Me2)]GHLM-NH2), for which the GI50 was > 25 µM (inactive) in the experiment with HOP-92; > 25 µM (inactive) in the experiment on EKVX; > 25 µM (inactive) in the experiment on NCI-H460; > 25 µM (inactive) in the experiment on RXF 393; > 25 µM (inactive) with HOP-62; above 25 µM with HCT-15. Further, the GI50 in the experiment with U-251, in the experiment on MDA-MB-435, with OVCAR-5, with 786-0, with Malme-3M and in the experiment on A549 was > 25 µM (inactive) throughout. For the same compound, the GI50 in the experiment with SK-MEL-5, in the experiment on Hs-578T, with KM12, in the experiment on IGROV-1, with HL-60 and in the experiment with TK-10 was > 25 µM (inactive) each time. Also, in the experiment with OVCAR-4, the GI50 is > 25 µM (inactive).
